# In PubChem BioAssay AID1117277 (The Scripps Research Institute Molecular Screening Center, 2014):
# The source made the active and inactive calls. How the calls were made is not given here.
# Tested on: Jurkat human T cells viability, luminescence (cytotoxicity counterscreen)
# Experiment: Jurkat T cell cytotoxicity, dose response, cytotoxicity control, luminescence (AID 1117277)
smiles,measurement,value
O=C(C[N+]12CCC(CC1)C(OC(=O)c1ccccc1)C2)c1ccc([N+](=O)[O-])cc1 (stereo unspecified),IC50,> 83.3 µM (inactive)
